From patent US20140038181A1, “CHEMICALLY SUBSTITUTED THERMOSENSITIVE PROBES AND COFACTORS FOR HOT START LIGATION” (TRILINK BIOTECHNOLOGIES, priority 2011, published 2014) come the findings set out here.

In the oligonucleotide strings, read from the 5' end, every base follows the letter of its sugar. An asterisk marks phosphorothioate; unmarked linkages are phosphodiester. Other units and linkages are bracketed, terminal groups are in braces. A string of capitals states the bases alone. [OXT] = OXT-substituted phosphotriester internucleotide linkage; d = 2'-deoxy (DNA)

Data set [1] deals with T1, T4 DNA ligase (Enterobacteria phage T4, UniProt P00970).
T1 construct: purchased New England Biolabs
The format is biochemical, bacteriophage T4.

Data set [2] concerns complementary DNA target sequence. Put plainly: UV-melting temperature of complexes of acceptor probes with complementary DNA target sequence. Format: physicochemical. As to conditions: 2 μM oligonucleotides; for Tm: NaCl 137 mM, KCl 2.7 mM, phosphate buffer pH 7.4, 260 nm; for ΔTm (PDE - PTE): versus unsubstituted acceptor probe, pH 7.4.
Data set [3] deals with Tth DNA ligase (Thermus thermophilus, UniProt P26996). Put plainly: Ligase reaction with OXT-SAP and unsubstituted NAD+ cofactor on matched and mismatched DNA template, PAGE analysis. Format: biochemical. As for the experimental part: The ability of Tth DNA ligase to join an OXT-substituted acceptor and donor probes was assessed on a matched and mismatched DNA template in the presence of NAD+ cofactor (see Table 3 for the sequences employed). Each 20 μL reaction was performed in ligase buffer containing 50 mM Tris-HCl (pH 7.5), 10 mM MgCl2, 10 mM dithiothreitol, 25 μg/ml bovine serum albumin and 1 mM NAD+. The OXT-SAP, unsubstituted donor probe and DNA template were at equimolar 0.1 μM concentration. To prevent premature uncontrollable cleavage of the OXT groups from OXT-SAP, the preparation of the ligation mixture was performed in three steps.
First, a binary template-donor complex was prepared by mixing the DNA template and donor strands in ligation buffer, heating the mixture at 95° C. for 2 min, slowly cooling to 4° C. over 15 min, and keeping mixture at 4° C. for 1 hour.
Second, the OXT-SAP was added to the mixture and allowed to stay at 4° C. for 12 hours.
Third, a solutions of NAD+ in ligation buffer was added and ligation was initiated by adding 2 units of Tth DNA ligase to reaction mixture. Ligation proceeded at room temperature for 1 hr and analyzed by PAGE on TBE-Urea denaturing 15% gel (FIG. 12).

Data set [4] can be described thus: Thermal conversion of 2′,3′-substituted ATP to unsubstituted ATP in ligase buffer at 95° C. (HPLC). As to conditions: 1 mM 2′,3′-substituted ATP. The format is physicochemical. The protocol:
The reactions were monitored by analysis of the aliquot of incubated mixture by reverse-phase and anion-exchange HPLC.

Chain of Tth DNA ligase (P26996 whole entry): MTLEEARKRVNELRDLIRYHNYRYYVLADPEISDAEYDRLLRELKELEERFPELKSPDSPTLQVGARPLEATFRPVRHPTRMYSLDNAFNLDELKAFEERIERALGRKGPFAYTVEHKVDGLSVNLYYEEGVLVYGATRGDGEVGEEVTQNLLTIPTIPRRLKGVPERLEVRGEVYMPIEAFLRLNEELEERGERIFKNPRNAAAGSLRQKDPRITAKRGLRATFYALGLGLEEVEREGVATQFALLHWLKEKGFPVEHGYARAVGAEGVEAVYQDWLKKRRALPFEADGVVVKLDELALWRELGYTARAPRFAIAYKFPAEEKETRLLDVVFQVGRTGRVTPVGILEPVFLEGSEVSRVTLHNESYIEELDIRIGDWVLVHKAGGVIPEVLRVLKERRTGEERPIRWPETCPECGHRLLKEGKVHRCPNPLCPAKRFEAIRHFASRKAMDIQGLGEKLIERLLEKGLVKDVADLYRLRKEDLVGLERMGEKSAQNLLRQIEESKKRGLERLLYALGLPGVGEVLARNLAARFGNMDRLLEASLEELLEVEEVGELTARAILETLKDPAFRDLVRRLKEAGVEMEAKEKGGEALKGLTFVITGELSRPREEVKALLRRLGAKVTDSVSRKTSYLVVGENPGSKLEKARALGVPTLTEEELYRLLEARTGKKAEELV
T1 sequence (P00970 whole entry, looked up): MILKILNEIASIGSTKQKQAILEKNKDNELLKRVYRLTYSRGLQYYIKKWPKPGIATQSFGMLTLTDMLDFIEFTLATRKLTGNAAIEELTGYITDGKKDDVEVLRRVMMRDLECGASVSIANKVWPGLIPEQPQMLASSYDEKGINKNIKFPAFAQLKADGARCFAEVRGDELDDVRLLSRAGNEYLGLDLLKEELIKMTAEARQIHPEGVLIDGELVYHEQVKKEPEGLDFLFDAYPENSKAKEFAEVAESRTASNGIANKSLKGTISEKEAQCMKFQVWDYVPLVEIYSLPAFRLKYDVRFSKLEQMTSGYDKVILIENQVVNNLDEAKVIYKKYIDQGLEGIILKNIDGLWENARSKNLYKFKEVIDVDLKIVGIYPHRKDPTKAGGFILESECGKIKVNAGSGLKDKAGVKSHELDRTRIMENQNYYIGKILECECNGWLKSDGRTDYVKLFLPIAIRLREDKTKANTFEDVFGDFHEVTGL

For the compound `Nc1ncnc2c1ncn2[C@@H]1O[C@H](COP(=O)(O)OP(=O)(O)OP(=O)(O)O)[C@@H](O)[C@H]1O` [unsubstituted ATP, ATP], in data set [1], the “formation of ligation product” value is listed as “ample formation of 80(+)-mer ligation product”.

Consider “Single OXT1: TACTATGGTCCACACAACTATTGC (OXT)T (DNA dTdAdCdTdAdTdGdGdTdCdCdAdCdAdCdAdAdCdTdAdTdTdGdC[OXT]dT)”, for which, in data set [2], the Tm came to 67.5 °C and the “ΔTm (PDE - PTE)” value was −1.4 °C.

Turning to “unsubstituted acceptor probe: CCCTGTTCCAGCGTCGGTGTTGCGTT (Table 3) (unmodified DNA)”, the “formation of ligation product” value in data set [3] (matched template, additionally incubated 1 h at 75° C.) is reported as “ample formation of ligation product”; in data set [3] (matched template, room temperature, 1 hr), “efficient formation of ligation product”; in data set [3] (mismatched DNA template, 120 hrs of incubation), “a small amount of ligation product was formed”; in data set [3] (mismatched DNA template, 120 hrs, additionally incubated 1 h at 75° C.) it was “substantial accumulation of ligation product”.

In the case of `Nc1ncnc2c1ncn2[C@@H]1O[C@H](COP(=O)(O)OP(=O)(O)OP(=O)(O)O)[C@@H](OC2CCCO2)[C@H]1OC1CCCO1` (stereo partly shown) [—O(THF), 2′,3′-O-bis-tetrahydrofuranyl-adenosine-5′triphosphates], the “Concentration of unsubstituted ATP” value in data set [4] (ligase buffer pH 7.5, 5 min) was found to be 2.8 µM; in data set [4] (ligase buffer pH 7.5, 10 min), 4.6 µM; in data set [4] (ligase buffer pH 7.5, 20 min), 17.3 µM; in data set [4] (ligase buffer pH 7.5, 45 min), 72.7 µM; in data set [4] (ligase buffer pH 7.5, 80 min), 182.2 µM.

For the compound “Double OXT23: TACTATGGTCCACACAACTATT(OXT)G(OXT)C T (DNA dTdAdCdTdAdTdGdGdTdCdCdAdCdAdCdAdAdCdTdAdTdT[OXT]dG[OXT]dCdT)”, in data set [2], the Tm was found to be 65.4 °C and the “ΔTm (PDE - PTE)” value was −3.5 °C.

On to “Single OXT2: TACTATGGTCCACACAACTATTG(OXT)C T (DNA dTdAdCdTdAdTdGdGdTdCdCdAdCdAdCdAdAdCdTdAdTdTdG[OXT]dCdT)”, for which, in data set [2], the Tm worked out at 66.6 °C and the “ΔTm (PDE - PTE)” value is −2.3 °C.

Take “Double OXT12: TACTATGGTCCACACAACTATTG(OXT)C (OXT)T (DNA dTdAdCdTdAdTdGdGdTdCdCdAdCdAdCdAdAdCdTdAdTdTdG[OXT]dC[OXT]dT)”: in data set [2], the Tm is 66.2 °C and the “ΔTm (PDE - PTE)” value is −2.6 °C.

On to “Unsubstituted: TACTATGGTCCACACAACTATTGCT (Table 7 acceptor probe) (DNA TACTATGGTCCACACAACTATTGCT; acceptor probe, label not given here) [reference compound]”, for which the Tm in data set [2] came out at 68.9 °C.
